Test results reported in patent publication US20070243629A1, “High Affinity Ligands for Influenza Virus and Methods for Their Production” (Glykos Finland Oy, priority 2003, published 2007).

What was measured:
Type in all cases: binding, human influenza virus A
Set-up in all cases: key: “+” = binding; “−” = no binding; “(+)” = trace binding
A/Kiev/301/94 H3N2 = test system: A/Kiev/301/94 H3N2
A/2/Japan/305/57 H2N2 = test system: A/2/Japan/305/57 H2N2
A/Shangdong/9/93 H3N2 = test system: A/Shangdong/9/93 H3N2
A/PR/8/34 H1N1 = test system: A/PR/8/34 H1N1
A/Taiwan/1/86 H1N1 = test system: A/Taiwan/1/86 H1N1
A/X31, A/Aichi/3/75 H3N2 = test system: A/X31, A/Aichi/3/75 H3N2
A/New Caledonia/20/99 = test system: A/New Caledonia/20/99
A/Hong Kong/8/68 H3N2 = test system: A/Hong Kong/8/68 H3N2
A/Beijing/262/95 H1N1 = test system: A/Beijing/262/95 H1N1

Measured: Binding of different human influenza virus A strains to glycolipids

Globoside
−: all assays above
